Results published in the NIST ThermoML archive (doi:10.1016/j.tca.2012.08.011).
Numbers after ± are expanded uncertainties.

Experiment: xn = mol fraction of the nth substance listed
Settings: 101 kPa, Liquid; for speed of sound: Linear variable-path acoustic interferometer; for mass density: Vibrating tube method

NC1CCCCC1 [cyclohexylamine] + C1CCCCC1
Settings	mass density [kg/m3]	speed of sound [m/s]
293.15 K, x1 = 0.0545	782.87 ± 0.12	1282.7 ± 1.4
293.15 K, x1 = 0.1032	786.84 ± 0.12	1287.2 ± 1.4
293.15 K, x1 = 0.1514	790.9 ± 0.12	1291.9 ± 1.4
293.15 K, x1 = 0.204	795.42 ± 0.11	1298 ± 1.4
293.15 K, x1 = 0.2496	799.41 ± 0.11	1303.5 ± 1.4
293.15 K, x1 = 0.3052	804.34 ± 0.11	1310.7 ± 1.4
293.15 K, x1 = 0.3467	808.08 ± 0.11	1316.6 ± 1.4
293.15 K, x1 = 0.3967	812.57 ± 0.11	1323.8 ± 1.4
293.15 K, x1 = 0.4025	813.08 ± 0.11	1324.5 ± 1.4
293.15 K, x1 = 0.4478	817.22 ± 0.11	1331.2 ± 1.4
293.15 K, x1 = 0.4992	821.91 ± 0.11	1339.2 ± 1.5
293.15 K, x1 = 0.5538	826.9 ± 0.11	1348.3 ± 1.5
293.15 K, x1 = 0.6495	835.66 ± 0.11	1364.5 ± 1.5
293.15 K, x1 = 0.6996	840.25 ± 0.11	1373.5 ± 1.5
293.15 K, x1 = 0.7535	845.15 ± 0.11	1383.2 ± 1.5
293.15 K, x1 = 0.8071	850.03 ± 0.12	1393 ± 1.5
293.15 K, x1 = 0.8555	854.41 ± 0.12	1402.2 ± 1.5
293.15 K, x1 = 0.8959	858.06 ± 0.12	1410.1 ± 1.5
293.15 K, x1 = 0.9501	862.93 ± 0.12	1420.6 ± 1.6
293.15 K, x1 = 1	867.39 ± 0.12	1430.5 ± 1.6
298.15 K, x1 = 0.0545	778.17 ± 0.12	1257.9 ± 1.4
298.15 K, x1 = 0.1032	782.14 ± 0.12	1262.6 ± 1.4
298.15 K, x1 = 0.1514	786.2 ± 0.12	1267.6 ± 1.4
298.15 K, x1 = 0.204	790.73 ± 0.12	1273.8 ± 1.4
298.15 K, x1 = 0.2496	794.7 ± 0.12	1279.4 ± 1.4
298.15 K, x1 = 0.3052	799.64 ± 0.12	1286.8 ± 1.4
298.15 K, x1 = 0.3467	803.36 ± 0.11	1293 ± 1.4
298.15 K, x1 = 0.3967	807.88 ± 0.11	1300.2 ± 1.4
298.15 K, x1 = 0.4025	808.4 ± 0.11	1300.9 ± 1.4
298.15 K, x1 = 0.4478	812.54 ± 0.11	1307.8 ± 1.4
298.15 K, x1 = 0.4992	817.25 ± 0.11	1315.9 ± 1.4
298.15 K, x1 = 0.5538	822.24 ± 0.11	1325 ± 1.4
298.15 K, x1 = 0.6495	831.02 ± 0.11	1341.3 ± 1.5
298.15 K, x1 = 0.6996	835.61 ± 0.12	1350.4 ± 1.5
298.15 K, x1 = 0.7535	840.54 ± 0.12	1360.5 ± 1.5
298.15 K, x1 = 0.8071	845.43 ± 0.12	1370.4 ± 1.5
298.15 K, x1 = 0.8555	849.81 ± 0.12	1379.6 ± 1.5
298.15 K, x1 = 0.8959	853.48 ± 0.12	1387.7 ± 1.5
298.15 K, x1 = 0.9501	858.37 ± 0.12	1398.5 ± 1.5
298.15 K, x1 = 1	862.85 ± 0.12	1408.8 ± 1.6
303.15 K, x1 = 0.0545	773.44 ± 0.12	1233.6 ± 1.3
303.15 K, x1 = 0.1032	777.42 ± 0.12	1238.1 ± 1.4
303.15 K, x1 = 0.1514	781.48 ± 0.12	1243.5 ± 1.4
303.15 K, x1 = 0.204	786.03 ± 0.12	1249.7 ± 1.4
303.15 K, x1 = 0.2496	790.01 ± 0.12	1255.4 ± 1.4
303.15 K, x1 = 0.3052	794.94 ± 0.12	1263.2 ± 1.4
303.15 K, x1 = 0.3467	798.67 ± 0.12	1269 ± 1.4
303.15 K, x1 = 0.3967	803.19 ± 0.12	1276.7 ± 1.4
303.15 K, x1 = 0.4025	803.71 ± 0.12	1277.4 ± 1.4
303.15 K, x1 = 0.4478	807.85 ± 0.12	1284.4 ± 1.4
303.15 K, x1 = 0.4992	812.59 ± 0.12	1292.7 ± 1.4
303.15 K, x1 = 0.5538	817.57 ± 0.12	1301.8 ± 1.4
303.15 K, x1 = 0.6495	826.37 ± 0.12	1318.5 ± 1.5
303.15 K, x1 = 0.6996	830.97 ± 0.12	1327.6 ± 1.5
303.15 K, x1 = 0.7535	835.93 ± 0.12	1337.7 ± 1.5
303.15 K, x1 = 0.8071	840.82 ± 0.12	1347.9 ± 1.5
303.15 K, x1 = 0.8555	845.22 ± 0.12	1357.2 ± 1.5
303.15 K, x1 = 0.8959	848.9 ± 0.12	1365.3 ± 1.5
303.15 K, x1 = 0.9501	853.81 ± 0.12	1376.5 ± 1.5
303.15 K, x1 = 1	858.31 ± 0.12	1387.3 ± 1.5
308.15 K, x1 = 0.0545	768.69 ± 0.12	1209.3 ± 1.3
308.15 K, x1 = 0.1032	772.67 ± 0.12	1213.9 ± 1.3
308.15 K, x1 = 0.1514	776.74 ± 0.12	1219.6 ± 1.3
308.15 K, x1 = 0.204	781.3 ± 0.12	1225.8 ± 1.3
308.15 K, x1 = 0.2496	785.28 ± 0.12	1231.6 ± 1.4
308.15 K, x1 = 0.3052	790.22 ± 0.12	1239.7 ± 1.4
308.15 K, x1 = 0.3467	793.96 ± 0.12	1245.6 ± 1.4
308.15 K, x1 = 0.3967	798.48 ± 0.12	1253.5 ± 1.4
308.15 K, x1 = 0.4025	799.01 ± 0.12	1254.4 ± 1.4
308.15 K, x1 = 0.4478	803.16 ± 0.12	1261.5 ± 1.4
308.15 K, x1 = 0.4992	807.91 ± 0.12	1269.9 ± 1.4
308.15 K, x1 = 0.5538	812.89 ± 0.12	1279 ± 1.4
308.15 K, x1 = 0.6495	821.73 ± 0.12	1295.7 ± 1.4
308.15 K, x1 = 0.6996	826.34 ± 0.12	1305 ± 1.4
308.15 K, x1 = 0.7535	831.31 ± 0.12	1315.5 ± 1.5
308.15 K, x1 = 0.8071	836.22 ± 0.12	1325.6 ± 1.5
308.15 K, x1 = 0.8555	840.63 ± 0.12	1334.9 ± 1.5
308.15 K, x1 = 0.8959	844.32 ± 0.12	1343.1 ± 1.5
308.15 K, x1 = 0.9501	849.24 ± 0.12	1354.7 ± 1.5
308.15 K, x1 = 1	853.76 ± 0.12	1366 ± 1.5
313.15 K, x1 = 0.0545	763.91 ± 0.13	1185.5 ± 1.3
313.15 K, x1 = 0.1032	767.89 ± 0.12	1189.8 ± 1.3
313.15 K, x1 = 0.1514	771.98 ± 0.12	1195.5 ± 1.3
313.15 K, x1 = 0.204	776.54 ± 0.12	1202 ± 1.3
313.15 K, x1 = 0.2496	780.53 ± 0.12	1207.9 ± 1.3
313.15 K, x1 = 0.3052	785.49 ± 0.12	1216.3 ± 1.3
313.15 K, x1 = 0.3467	789.24 ± 0.12	1222.2 ± 1.4
313.15 K, x1 = 0.3967	793.77 ± 0.12	1230.3 ± 1.4
313.15 K, x1 = 0.4025	794.29 ± 0.12	1231 ± 1.4
313.15 K, x1 = 0.4478	798.45 ± 0.12	1238.5 ± 1.4
313.15 K, x1 = 0.4992	803.21 ± 0.12	1247 ± 1.4
313.15 K, x1 = 0.5538	808.21 ± 0.12	1256.3 ± 1.4
313.15 K, x1 = 0.6495	817.07 ± 0.12	1273.3 ± 1.4
313.15 K, x1 = 0.6996	821.7 ± 0.12	1282.6 ± 1.4
313.15 K, x1 = 0.7535	826.67 ± 0.12	1292.9 ± 1.4
313.15 K, x1 = 0.8071	831.61 ± 0.12	1303.4 ± 1.5
313.15 K, x1 = 0.8555	836.02 ± 0.12	1312.8 ± 1.5
313.15 K, x1 = 0.8959	839.74 ± 0.12	1321.1 ± 1.5
313.15 K, x1 = 0.9501	844.68 ± 0.13	1332.8 ± 1.5
313.15 K, x1 = 1	849.23 ± 0.13	1344.5 ± 1.5
318.15 K, x1 = 0.0545	759.09 ± 0.13	1162.1 ± 1.3
318.15 K, x1 = 0.1032	763.09 ± 0.13	1166.2 ± 1.3
318.15 K, x1 = 0.1514	767.19 ± 0.12	1171.9 ± 1.3
318.15 K, x1 = 0.204	771.77 ± 0.12	1178.7 ± 1.3
318.15 K, x1 = 0.2496	775.77 ± 0.12	1184.7 ± 1.3
318.15 K, x1 = 0.3052	780.74 ± 0.12	1193.1 ± 1.3
318.15 K, x1 = 0.3467	784.5 ± 0.12	1199.2 ± 1.3
318.15 K, x1 = 0.3967	789.02 ± 0.12	1207.3 ± 1.3
318.15 K, x1 = 0.4025	789.56 ± 0.12	1208.2 ± 1.3
318.15 K, x1 = 0.4478	793.71 ± 0.12	1215.8 ± 1.4
318.15 K, x1 = 0.4992	798.49 ± 0.12	1224.5 ± 1.4
318.15 K, x1 = 0.5538	803.51 ± 0.12	1233.9 ± 1.4
318.15 K, x1 = 0.6495	812.4 ± 0.12	1251.1 ± 1.4
318.15 K, x1 = 0.6996	817.05 ± 0.12	1260.4 ± 1.4
318.15 K, x1 = 0.7535	822.04 ± 0.12	1270.9 ± 1.4
318.15 K, x1 = 0.8071	827 ± 0.12	1281.5 ± 1.4
318.15 K, x1 = 0.8555	831.42 ± 0.12	1290.9 ± 1.5
318.15 K, x1 = 0.8959	835.15 ± 0.12	1299.2 ± 1.5
318.15 K, x1 = 0.9501	840.12 ± 0.13	1311.1 ± 1.5
318.15 K, x1 = 1	844.68 ± 0.13	1323.1 ± 1.5
323.15 K, x1 = 0.0545	754.26 ± 0.13	1138.5 ± 1.3
323.15 K, x1 = 0.1032	758.27 ± 0.13	1142.7 ± 1.3
323.15 K, x1 = 0.1514	762.37 ± 0.13	1148.4 ± 1.3
323.15 K, x1 = 0.204	766.97 ± 0.13	1155.2 ± 1.3
323.15 K, x1 = 0.2496	770.99 ± 0.13	1161.4 ± 1.3
323.15 K, x1 = 0.3052	775.97 ± 0.12	1169.9 ± 1.3
323.15 K, x1 = 0.3467	779.75 ± 0.12	1176.2 ± 1.3
323.15 K, x1 = 0.3967	784.29 ± 0.12	1184.5 ± 1.3
323.15 K, x1 = 0.4025	784.82 ± 0.12	1185.4 ± 1.3
323.15 K, x1 = 0.4478	788.97 ± 0.12	1193.2 ± 1.3
323.15 K, x1 = 0.4992	793.75 ± 0.12	1202 ± 1.3
323.15 K, x1 = 0.5538	798.79 ± 0.12	1211.6 ± 1.4
323.15 K, x1 = 0.6495	807.72 ± 0.12	1228.8 ± 1.4
323.15 K, x1 = 0.6996	812.4 ± 0.12	1238.3 ± 1.4
323.15 K, x1 = 0.7535	817.4 ± 0.12	1248.9 ± 1.4
323.15 K, x1 = 0.8071	822.37 ± 0.12	1259.4 ± 1.4
323.15 K, x1 = 0.8555	826.82 ± 0.13	1269.2 ± 1.4
323.15 K, x1 = 0.8959	830.56 ± 0.13	1277.6 ± 1.5
323.15 K, x1 = 0.9501	835.56 ± 0.13	1289.6 ± 1.5
323.15 K, x1 = 1	840.14 ± 0.13	1301.8 ± 1.5
